# Assay results as given in patent publication US20210070748A1, “INHIBITORS OF BRUTONS TYROSINE KINASE” (Pharmacyclics LLC, priority 2015, published 2021).
# Assays:
# Assay type in all cases: biochemical
# [1] = biological target: EGFR (Homo sapiens, UniProt P00533); assay: Inhibition of a panel of kinases, in vitro HotSpot kinase assay: EGFR; details: D-compounds panel data; 1 μM ATP
# Method: (§1) The degree of inhibition of a panel of kinases is determined using the in vitro HotSpot kinase assay (purified enzymes, ^33P-ATP, an appropriate substrate and 1 μM ATP).
# [2] = biological target: SRC (Homo sapiens, UniProt P12931); assay: Inhibition of a panel of kinases, in vitro HotSpot kinase assay: SRC; details: D-compounds panel data; 1 μM ATP
# Method: as §1
# [3] = biological target: T1, JAK3 (Homo sapiens, UniProt P52333); assay: Inhibition of a panel of kinases, in vitro HotSpot kinase assay: JAK3; details: D-compounds panel data; 1 μM ATP; read-out: IC50 JAK3
# T1 sequence (P52333 1-1124): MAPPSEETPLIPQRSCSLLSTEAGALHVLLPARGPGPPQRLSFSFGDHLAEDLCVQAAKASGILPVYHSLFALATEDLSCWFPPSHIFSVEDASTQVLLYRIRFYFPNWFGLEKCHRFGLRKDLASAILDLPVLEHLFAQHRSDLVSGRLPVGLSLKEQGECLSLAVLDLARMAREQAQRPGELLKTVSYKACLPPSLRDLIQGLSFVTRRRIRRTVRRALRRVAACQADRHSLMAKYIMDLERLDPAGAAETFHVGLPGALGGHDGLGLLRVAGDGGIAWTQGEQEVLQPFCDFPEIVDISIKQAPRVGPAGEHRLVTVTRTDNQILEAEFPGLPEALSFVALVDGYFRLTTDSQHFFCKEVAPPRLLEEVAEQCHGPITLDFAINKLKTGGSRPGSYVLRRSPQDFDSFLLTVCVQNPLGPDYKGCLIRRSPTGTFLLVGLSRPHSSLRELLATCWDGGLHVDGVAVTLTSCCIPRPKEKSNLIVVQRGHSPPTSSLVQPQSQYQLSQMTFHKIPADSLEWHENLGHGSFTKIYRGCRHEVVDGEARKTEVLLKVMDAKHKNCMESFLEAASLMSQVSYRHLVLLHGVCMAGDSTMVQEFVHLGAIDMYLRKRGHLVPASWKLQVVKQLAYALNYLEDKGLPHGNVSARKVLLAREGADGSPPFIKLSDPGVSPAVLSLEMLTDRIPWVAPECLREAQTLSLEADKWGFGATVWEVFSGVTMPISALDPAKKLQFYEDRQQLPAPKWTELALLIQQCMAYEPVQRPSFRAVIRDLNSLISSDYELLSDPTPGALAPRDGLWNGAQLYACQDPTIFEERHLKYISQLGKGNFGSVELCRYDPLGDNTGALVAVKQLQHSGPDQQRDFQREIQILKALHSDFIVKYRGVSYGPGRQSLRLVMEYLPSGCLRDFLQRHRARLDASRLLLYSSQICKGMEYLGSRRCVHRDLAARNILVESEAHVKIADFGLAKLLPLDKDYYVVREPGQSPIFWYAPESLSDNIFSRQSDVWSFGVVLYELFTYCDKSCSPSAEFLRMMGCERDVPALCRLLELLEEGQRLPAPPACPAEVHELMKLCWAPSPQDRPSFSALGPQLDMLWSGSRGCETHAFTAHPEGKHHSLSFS
# Sequence of SRC (P12931 whole entry): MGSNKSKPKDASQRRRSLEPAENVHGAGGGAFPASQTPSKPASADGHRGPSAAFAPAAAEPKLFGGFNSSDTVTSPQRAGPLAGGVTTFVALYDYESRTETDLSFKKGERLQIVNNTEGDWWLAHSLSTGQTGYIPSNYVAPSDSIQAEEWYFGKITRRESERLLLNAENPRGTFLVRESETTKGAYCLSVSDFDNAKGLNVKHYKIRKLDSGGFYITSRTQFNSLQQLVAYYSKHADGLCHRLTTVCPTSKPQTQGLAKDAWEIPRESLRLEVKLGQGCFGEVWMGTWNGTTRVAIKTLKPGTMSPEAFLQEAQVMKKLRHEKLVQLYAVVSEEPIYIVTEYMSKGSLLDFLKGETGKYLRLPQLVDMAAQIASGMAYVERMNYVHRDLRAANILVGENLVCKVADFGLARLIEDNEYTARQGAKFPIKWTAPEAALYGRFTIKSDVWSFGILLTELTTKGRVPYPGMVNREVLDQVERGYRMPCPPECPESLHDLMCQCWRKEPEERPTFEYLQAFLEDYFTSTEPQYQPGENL
# Sequence of EGFR (P00533 25-1210): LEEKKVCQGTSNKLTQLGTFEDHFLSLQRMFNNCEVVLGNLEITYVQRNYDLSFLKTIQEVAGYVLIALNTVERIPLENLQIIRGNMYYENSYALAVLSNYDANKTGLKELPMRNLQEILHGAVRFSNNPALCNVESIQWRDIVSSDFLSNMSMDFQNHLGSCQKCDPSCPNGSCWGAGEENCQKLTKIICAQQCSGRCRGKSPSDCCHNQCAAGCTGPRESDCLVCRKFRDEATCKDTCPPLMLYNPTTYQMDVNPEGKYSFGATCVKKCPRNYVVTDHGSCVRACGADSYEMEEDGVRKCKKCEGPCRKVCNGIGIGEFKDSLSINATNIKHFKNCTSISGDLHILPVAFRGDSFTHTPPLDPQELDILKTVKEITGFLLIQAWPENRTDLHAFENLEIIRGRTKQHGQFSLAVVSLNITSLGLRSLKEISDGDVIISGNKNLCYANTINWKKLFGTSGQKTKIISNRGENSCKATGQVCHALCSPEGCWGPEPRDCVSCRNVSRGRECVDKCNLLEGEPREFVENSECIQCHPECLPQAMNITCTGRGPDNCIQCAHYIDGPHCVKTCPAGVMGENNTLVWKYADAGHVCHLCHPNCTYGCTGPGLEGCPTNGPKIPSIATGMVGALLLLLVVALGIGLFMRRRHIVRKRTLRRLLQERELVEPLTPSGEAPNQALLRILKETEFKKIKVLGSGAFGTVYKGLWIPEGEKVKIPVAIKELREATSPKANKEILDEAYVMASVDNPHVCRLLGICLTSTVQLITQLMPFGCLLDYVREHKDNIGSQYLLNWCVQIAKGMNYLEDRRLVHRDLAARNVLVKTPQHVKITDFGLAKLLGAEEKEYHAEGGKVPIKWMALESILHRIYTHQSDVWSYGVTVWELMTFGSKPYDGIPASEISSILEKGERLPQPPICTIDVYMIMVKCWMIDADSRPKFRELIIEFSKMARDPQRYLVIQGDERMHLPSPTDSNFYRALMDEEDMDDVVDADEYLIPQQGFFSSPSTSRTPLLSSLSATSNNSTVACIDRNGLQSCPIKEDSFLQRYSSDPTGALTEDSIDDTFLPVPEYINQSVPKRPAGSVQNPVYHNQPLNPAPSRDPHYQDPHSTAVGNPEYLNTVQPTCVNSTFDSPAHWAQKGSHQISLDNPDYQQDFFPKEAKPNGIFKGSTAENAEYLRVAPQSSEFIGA
Structure (SMILES),IC50 [1] [nM],IC50 [2] [nM],IC50 [3] [nM]
"CN1CCN([C@@H]2CCCN(c3cnc(C(N)=O)c(Nc4cnn(C)c4)n3)C2)C1=O [Example D-209, 3-[(1-methyl-1H-pyrazol-4-yl)amino]-5-[(3R)-3-(3-methyl-2-oxoimidazolidin-1-yl)piperidin-1-yl]pyrazine-2-carboxamide]",> 10000,100 to 1000,1000 to 10000
"C[C@@H]1[C@H](NC(=O)c2ccc(C3CC3)cc2)CCCN1c1cnc(C(N)=O)c(Nc2cnn(CC(C)(C)O)c2)n1 [Example D-215, 5-[(2R,3R)-3-(4-cyclopropylbenzamido)-2-methylpiperidin-1-yl]-3-{[1-(2-hydroxy-2-methylpropyl)-1H-pyrazol-4-yl]amino}pyrazine-2-carboxamide]",> 10000,100 to 1000,> 10000
"C[C@@H]1[C@H](NC(=O)c2ccc(N(C)CCO)cc2)CCCN1c1cnc(C(N)=O)c(Nc2cnn(C)c2)n1 [Example D-217, 5-[(2R,3R)-3-{4-[(2-hydroxyethyl)(methyl)amino]benzamido}-2-methylpiperidin-1-yl]-3-[(1-methyl-1H-pyrazol-4-yl)amino]pyrazine-2-carboxamide]",1000 to 10000,10 to 100,100 to 1000
"CCN(CC)c1ccc(C(=O)N[C@@H]2CCCN(c3cnc(C(N)=O)c(Nc4cnn(C)c4)n3)[C@@H]2C)cc1 [Example D-218, 5-[(2R,3R)-3-[4-(diethylamino)benzamido]-2-methylpiperidin-1-yl]-3-[(1-methyl-1H-pyrazol-4-yl)amino]pyrazine-2-carboxamide]",1000 to 10000,10 to 100,1000 to 10000
"C[C@@H]1[C@H](NC(=O)c2ccc(OC3CC3)cc2)CCCN1c1cnc(C(N)=O)c(Nc2cnn(C)c2)n1 [Example D-219, 5-[(2R,3R)-3-(4-cyclopropoxybenzamido)-2-methylpiperidin-1-yl]-3-[(1-methyl-1H-pyrazol-4-yl)amino]pyrazine-2-carboxamide]",1000 to 10000,10 to 100,1000 to 10000
"CC(C)c1ccc(S(=O)(=O)N[C@@H]2CCCN(c3cnc(C(N)=O)c(Nc4cnn(C)c4)n3)[C@@H]2C)cc1 [Example D-220, 3-[(1-methyl-1H-pyrazol-4-yl)amino]-5-[(2R,3R)-2-methyl-3-[4-(propan-2-yl)benzenesulfonamido]piperidin-1-yl]pyrazine-2-carboxamide]",> 10000,1000 to 10000,1000 to 10000
"C[C@@H]1[C@H](NC(=O)c2ccc(C3(C(F)(F)F)CC3)cc2)CCCN1c1cnc(C(N)=O)c(Nc2cnn(C)c2)n1 [Example D-221, 3-[(1-Methyl-1H-pyrazol-4-yl)amino]-5-[(2R,3R)-2-methyl-3-{4-[1-(trifluoromethyl)cyclopropyl]benzamido}piperidin-1-yl]pyrazine-2-carboxamide]",1000 to 10000,100 to 1000,> 10000
"CC(C)c1ccc(C(=O)N[C@@H]2CCCN(c3cnc(C(N)=O)c(Nc4cnn(C)c4)n3)C2)cc1 [Example D-222, 3-[(1-Methyl-1H-pyrazol-4-yl)amino]-5-[(3R)-3-[4-(propan-2-yl)benzamido]piperidin-1-yl]pyrazine-2-carboxamide]",> 10000,1000 to 10000,> 10000
"C[C@@H]1[C@H](NC(=O)c2ccc(C(C)(C)C)cc2F)CCCN1c1cnc(C(N)=O)c(Nc2cnn(C)c2)n1 [Example D-223, 5-[(2R,3R)-3-(4-tert-butyl-2-fluorobenzamido)-2-methylpiperidin-1-yl]-3-[(1-methyl-1H-pyrazol-4-yl)amino]pyrazine-2-carboxamide]",1000 to 10000,100 to 1000,> 10000
"Cn1cc(Nc2nc(N3CCC[C@@H](n4ccc5cc(C6CC6)ncc5c4=O)C3)cnc2C(N)=O)cn1 [Example D-225, 5-[(3R)-3-(6-cyclopropyl-1-oxo-1,2-dihydro-2,7-naphthyridin-2-yl)piperidin-1-yl]-3-[(1-methyl-1H-pyrazol-4-yl)amino]pyrazine-2-carboxamide]",1000 to 10000,10 to 100,100 to 1000
"C[C@@H]1[C@H](NC(=O)c2ccc(C3(C)COC3)cc2)CCCN1c1cnc(C(N)=O)c(Nc2cnn(C)c2)n1 [Example D-228, 3-[(1-methyl-1H-pyrazol-4-yl)amino]-5-[(2R,3R)-2-methyl-3-[4-(3-methyloxetan-3-yl)benzamido]piperidin-1-yl]pyrazine-2-carboxamide]",1000 to 10000,10 to 100,1000 to 10000
"C[C@@H]1[C@H](NC(=O)c2ccc(C(C)(C)C)s2)CCCN1c1cnc(C(N)=O)c(Nc2cnn(C)c2)n1 [Example D-229, 5-[(2R,3R)-3-(5-tert-butylthiophene-2-amido)-2-methylpiperidin-1-yl]-3-[(1-methyl-1H-pyrazol-4-yl)amino]pyrazine-2-carboxamide]",1000 to 10000,100 to 1000,> 10000

# Second part, the molecule after the results:
IC50 [1] [nM],IC50 [2] [nM],IC50 [3] [nM],Structure (SMILES)
1000 to 10000,10 to 100,1000 to 10000,"C[C@@H]1[C@H](NC(=O)c2ccc(C(C)(C)C)cn2)CCCN1c1cnc(C(N)=O)c(Nc2cnn(C)c2)n1 [Example D-208, 5-[(2R,3R)-3-(5-tert-butylpyridine-2-amido)-2-methylpiperidin-1-yl]-3-[(1-methyl-1H-pyrazol-4-yl)amino]pyrazine-2-carboxamide]"
1000 to 10000,100 to 1000,1000 to 10000,"Cc1ncc(Nc2nc(N3CCC[C@@H](NC(=O)c4ccc(C5CC5)cc4)[C@H]3C)cnc2C(N)=O)s1 [Example D-210, 5-[(2R,3R)-3-(4-cyclopropylbenzamido)-2-methylpiperidin-1-yl]-3-[(2-methyl-1,3-thiazol-5-yl)amino]pyrazine-2-carboxamide]"
1000 to 10000,10 to 100,100 to 1000,"C[C@@H]1[C@H](NC(=O)c2ccc(C3CC3)cc2)CCCN1c1cnc(C(N)=O)c(Nc2ccc(OC3CCN4CCCC4C3)cc2)n1 (stereo partly drawn) [Example D-211, 5-[(2R,3R)-3-(4-cyclopropylbenzamido)-2-methylpiperidin-1-yl]-3-{[4-(octahydroindolizin-7-yloxy)phenyl]amino}pyrazine-2-carboxamide]"
1000 to 10000,10 to 100,100 to 1000,"C[C@@H]1[C@H](NC(=O)c2ccc(C3(O)CCCC3)cc2)CCCN1c1cnc(C(N)=O)c(Nc2cnn(C)c2)n1 [Example D-212, 5-[(2R,3R)-3-[4-(1-hydroxycyclopentyl)benzamido]-2-methylpiperidin-1-yl]-3-[(1-methyl-1H-pyrazol-4-yl)amino]pyrazine-2-carboxamide]"
1000 to 10000,10 to 100,100 to 1000,"C[C@@H]1[C@H](NC(=O)c2ccc3c(c2)OC(F)(F)O3)CCCN1c1cnc(C(N)=O)c(Nc2cnn(C)c2)n1 [Example D-216, 5-[(2R,3R)-3-(2,2-difluoro-2H-1,3-benzodioxole-5-amido)-2-methylpiperidin-1-yl]-3-[(1-methyl-1H-pyrazol-4-yl)amino]pyrazine-2-carboxamide]"
100 to 1000,10 to 100,1000 to 10000,"C[C@@H]1[C@H](NC(=O)c2ccc3c(c2)OCCO3)CCCN1c1cnc(C(N)=O)c(Nc2cnn(C)c2)n1 [Example D-224, 5-[(2R,3R)-3-(2,3-dihydro-1,4-benzodioxine-6-amido)-2-methylpiperidin-1-yl]-3-[(1-methyl-1H-pyrazol-4-yl)amino]pyrazine-2-carboxamide]"
100 to 1000,≤ 10,100 to 1000,"C[C@@H]1[C@H](NC(=O)c2ccc3scnc3c2)CCCN1c1cnc(C(N)=O)c(Nc2ccc(N3CCN(C)CC3)cc2)n1 [Example D-226, N-[(2R,3R)-1-(5-carbamoyl-6-{[4-(4-methylpiperazin-1-yl)phenyl]amino}pyrazin-2-yl)-2-methylpiperidin-3-yl]-1,3-benzothiazole-5-carboxamide]"
100 to 1000,≤ 10,100 to 1000,"C[C@@H]1[C@H](NC(=O)c2ccc(S(C)(=O)=O)cc2)CCCN1c1cnc(C(N)=O)c(Nc2ccc(N3CCN(C)CC3)cc2)n1 [Example D-227, 5-[(2R,3R)-3-(4-methanesulfonylbenzamido)-2-methylpiperidin-1-yl]-3-{[4-(4-methylpiperazin-1-yl)phenyl]amino}pyrazine-2-carboxamide]"
